This is an account of results in publication PMC12955902 (Advanced Science, 2025).

Assay [1] has as its target T1, SaHU (Staphylococcus aureus, UniProt Q99U17).
T1 sequence (Q99U17 1-90): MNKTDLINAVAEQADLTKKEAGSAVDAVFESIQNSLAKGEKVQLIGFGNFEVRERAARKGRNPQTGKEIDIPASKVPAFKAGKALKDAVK
The assay is described as follows: microscale thermophoresis. Format: binding. (In general: Microscale thermophoresis detects binding through changes in fluorescence in a small temperature gradient.)

For assay [2], the target named is T2, HU protein of S. pyogenes (Streptococcus pyogenes, UniProt Q5XB35).
T2 construct: gene hup
The assay is described as follows: WaterLOGSY NMR. The note with it: 10 µM HU, 400 µM compound; 50 mM NaCl, 20 mM Tris, pH 7.4, 5% DMSO, 10% D2O, 298 K. The format is binding.

In assay [3] the target is T3, HU protein of M. tuberculosis (Mycobacterium tuberculosis, UniProt P9WMK7).
T3 construct: gene hupB
T3 sequence (P9WMK7 2-216): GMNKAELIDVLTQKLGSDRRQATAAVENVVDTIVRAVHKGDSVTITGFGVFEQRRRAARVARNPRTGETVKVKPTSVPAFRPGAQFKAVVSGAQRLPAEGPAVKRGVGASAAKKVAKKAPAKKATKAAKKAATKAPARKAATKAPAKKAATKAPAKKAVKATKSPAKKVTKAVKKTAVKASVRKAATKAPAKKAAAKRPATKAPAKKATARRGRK

T2 sequence (Q5XB35 whole entry): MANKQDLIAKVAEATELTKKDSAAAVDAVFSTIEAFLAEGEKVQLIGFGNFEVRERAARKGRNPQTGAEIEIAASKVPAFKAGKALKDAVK

Turning to `O=C(/C=C/c1cccc(S(=O)(=O)Nc2ccccc2)c1)NO` [Belinostat], the affinity in assay [1], expressed as Kd, was 4.24 ± 0.24 µM. The “WaterLOGSY NMR” value is “including A. baumannii, S. pneumoniae, B. subtilis, M. tuberculosis and S. pyogenes” in assay [2]; “including A. baumannii, S. pneumoniae, B. subtilis, M. tuberculosis and S. pyogenes” in assay [3].

Turning to `O=C(/C=C/c1ccccc1)NO` [CHA], in assay [1], the Kd (in general, a measure of binding affinity in units of concentration) worked out at 5.77 ± 0.93 µM.
